Tests used:
[1] = tested on: THP-1 cells (a human monocytic cell line); assay: Biocompatibility/toxicity with THP-1 cells (cell viability); type: cell-based
Procedure: FIG. 17 presents a Graph 1700 illustrating the biocompatibility/toxicity of various therapeutic polymers and coacervate complexes with mammalian cells in accordance with various embodiments described herein. […] In accordance with the data reflected in Graph 1700, different dosages (e.g., from 2 ppm to 1000 ppm in μg/mL) of the respective polymers and coacervate complexes were incubated with the THP-1 cells for 24 hours at 37° C. The polymers tested include Polymer A, Polymer B, Polymer C, Polymer D, and Polymer E. The coacervates tested include Complex B, Complex C, Complex D, and Complex E. The percent cell viability detected at concentrations less than 63 ppm were substantially the same as those shown for 63 ppm, and thus are not depicted to minimize the complexity of the visualization.

P. aeruginosa = assay: Minimal inhibitory concentration toward P. aeruginosa; type: cell-based, Pseudomonas aeruginosa
Procedure: FIG. 15A presents a Graph 1500 illustrating the antimicrobial selectivity and efficacy of example therapeutic polymers and coacervate complexes against P. aeruginosa in accordance with various embodiments described herein. […] The tested efficacy is based on their respective minimal inhibitory concentrations (MICs) toward P. aeruginosa. […] The commercial standard antibiotic Polymyxin B sulfate (PolyB) and Complex X were also tested for selectivity and efficacy/toxicity for comparison. Complex X is used herein to refer to a coacervate complex formed with Polymer A in combination with PolyB (as opposed to Polymer A and the disclosed therapeutic polyguanidinium based Polymers). FIG. 15B provides a corresponding Table 1501 for Graph 1500. In addition to the MIC and HC50 values reflected in Graph 1500, Table 1501 also identifies the […] (SI) of the respective polymers and corresponding coacervate complexes. Repetitive description of like elements employed in respective embodiments is omitted for sake of brevity.

[2] = In vivo toxicity in mice (LD50)
Procedure: FIGS. 21A and 21B provides tables illustrating the in vivo toxicity and antimicrobial efficacy of coacervate complexes in accordance with various embodiments described herein. […] The data presented in both tables 2101 and 2102 reflect testing using a mouse model.
With reference to FIG. 21 and Table 2101 the in vivo toxicity of different antimicrobials was measured as a function of the lethal dose 50 (LD50) values (which is the amount of antimicrobial that kills 50% of the tested population). […] In fact, the LD50 level of Complex E is so high that is cannot be measured. […] This in-vivo toxicity data is further commensurate with the in vitro toxicity data and in vitro hemolysis data discussed above.

Polymyxin B sulfate [PolyB]
percent cell viability THP-1 ([1]; 1000 ppm, 24 hours at 37° C): below 20%
cell viability THP-1 ([1]; about 250 ppm): 50%
cell viability THP-1 ([1]; about 500 ppm): ~30%
MIC toward P. aeruginosa (P. aeruginosa): 0.5 µg/mL
LD50 [2]: 5.4 mg/kg
